This note sets out measurements from patent US11185527B2, “Methods and compositions relating to steroid hormone receptor-dependent cancers” (Wayne State University, priority 2017, dated 2021).

Structures are written as SMILES.

Test in all cases: Cell monolayer growth assay (MTT)
The subject of one assay is VCaP cells. The class given is cell-based. As to the method: (§1) Twenty four hours after plating the VCaP cells, they were treated with the indicated concentrations of KCI807 (FIG. 4G) or with the indicated concentrations of enzalutamide (ENZ) (FIG. 4H). […] Cells were trypsinized and 3000-4000 cells/well were seeded in 96-well plates coated with poly-D-lysine. The cells were seeded in phenol red-free medium supplemented with 10% FBS, 100 units/ml penicillin, 100 μg/ml streptomycin, 2 mM L-glutamine mixture and sodium pyruvate (1 mM) for LNCaP cells and phenol red-free medium supplemented with 10% FBS, 100 units/ml penicillin, 100 μg/ml streptomycin and 2 mM L-glutamine mixture for VCaP, 22Rv1, DU145, HeLa, HEK293 and H1650 cells. The cells were grown at 37° C. in 5% CO2. Twenty four hours after seeding in the 96-well plates, the cells were treated with the indicated concentration of KCI807 or DMSO (vehicle). The cells were re-treated on Day 3 by removing half the volume of medium and replacing it with fresh treated medium. Cell viability was determined using the MTT assay from day zero until day five. MTT (10 μL, 5 mg/mL) was added to each well and incubated for 2h at 37° C. The formazan crystal sediments were dissolved in 100 μL of DMSO, and the absorbance at 570 nm was measured using the BioTek Synergy 2 Microplate Reader (BioTek, Winooski, Vt.). The assay was conducted in sextuplicate wells and values were normalized to day zero.

The next assay has as its system LNCaP cells. The class given is cell-based. Conditions: enzalutamide up to 20 uM. As to the method: as §1, with “the LNCaP” for “the VCaP”, “(FIG. 4E)” for “(FIG. 4G)”, “(FIG. 4F).” for “(FIG. 4H).”
Another assay deals with 22Rv1 cells. Format: cell-based, human. Conditions: enzalutamide up to 20 uM. On the procedure:
Twenty four hours after plating the 22Rv1 cells, they were treated with the indicated concentrations of KCI807 (FIG. 4C) or with the indicated concentrations of enzalutamide (ENZ) (FIG. 4D).
Twenty four hours after plating the cells, they were treated with the indicated concentrations of the compound.
FIG. 16D is a graph showing the effect of 5′-Fluoro-5,3′-Dihydroxyflavone at various concentrations on growth of 22Rv1 cells.
Cells were trypsinized and 3000-4000 cells/well were seeded in 96-well plates coated with poly-D-lysine. The cells were seeded in phenol red-free medium supplemented with 10% FBS, 100 units/ml penicillin, 100 μg/ml streptomycin, 2 mM L-glutamine mixture and sodium pyruvate (1 mM) for LNCaP cells and phenol red-free medium supplemented with 10% FBS, 100 units/ml penicillin, 100 μg/ml streptomycin and 2 mM L-glutamine mixture for VCaP, 22Rv1, DU145, HeLa, HEK293 and H1650 cells. The cells were grown at 37° C. in 5% CO2. Twenty four hours after seeding in the 96-well plates, the cells were treated with the indicated concentration of KCI807 or DMSO (vehicle). The cells were re-treated on Day 3 by removing half the volume of medium and replacing it with fresh treated medium. Cell viability was determined using the MTT assay from day zero until day five. MTT (10 μL, 5 mg/mL) was added to each well and incubated for 2h at 37° C. The formazan crystal sediments were dissolved in 100 μL of DMSO, and the absorbance at 570 nm was measured using the BioTek Synergy 2 Microplate Reader (BioTek, Winooski, Vt.). The assay was conducted in sextuplicate wells and values were normalized to day zero.

For `O=c1cc(-c2cc(O)cc(F)c2)oc2cccc(O)c12` [5′-fluoro-5,3′-dihydroxyflavone], in the assay with VCaP cells, the “growth inhibition of VCaP cells” value is recorded as “inhibited growth”. Besides, the “growth inhibition of LNCaP cells” value with LNCaP cells is listed as “inhibited growth”. Also, the “growth inhibition of 22Rv1 cells” value with 22Rv1 cells is reported as “inhibited growth”.
In the case of `O=c1cc(-c2cccc(O)c2)oc2cccc(O)c12` [KCI807, 5,3′-dihydroxyflavone], the “growth inhibition of VCaP cells” value with VCaP cells is “most sensitive”. In the assay on LNCaP cells, the “growth inhibition of LNCaP cells” value was “completely inhibited cell growth”. Also, the “growth inhibition of 22Rv1 cells” value in the assay on 22Rv1 cells is “completely inhibited cell growth”.
As for `CNC(=O)c1ccc(N2C(=S)N(c3ccc(C#N)c(C(F)(F)F)c3)C(=O)C2(C)C)cc1F` [enzalutamide], the “growth inhibition of VCaP cells” value in the assay with VCaP cells was “most sensitive”. For the same compound, the “growth inhibition of LNCaP cells” value with LNCaP cells is given as “only showed partial effects”. In the assay with 22Rv1 cells, the “growth inhibition of 22Rv1 cells” value is given as “only showed partial effects”.
